From patent publication US10954269B2, “Anti-inflammatory tripeptides” (Dr. August Wolff Gmbh & Co. KG Arzneimittel, priority 2013, dated 2021)
[ ]: non-standard residue; d: D form. Aib = CC(C)(N)C(=O)O

Assays:
[1] = system: primary human T-cells; test: Cytokine secretion on protein level in activated primary human T-cells (13-plex FACS / Luminex, supernatant); format: cell-based; conditions: 10^−9M
Protocol: (§1) Primary T-cells were isolated from peripheral blood from healthy volunteers and from secondary lymphatic organs from naïve C57BL/6 mice, respectively. The cells were stimulated with phorbol-12-myristate-13-acetate (PMA)/Ionomycin and interferon-gamma (IFN-γ), respectively, for 48 h to activate the cells. The activated cells release pro-inflammatory cytokines. In parallel a human (HaCaT) keratinocyte cell line was activated with PMA/Ionomycin and IFN-γ, respectively, too. […] At the same time release of anti-inflammatory IL-10 was inhibited. Two days after addition of PMA/Ionomycin and IFN-γ, respectively, the induction of IL-1 secretion was determined in the supernatant for proving that the cells are activated. […] The anti-inflammatory properties of the tripeptides were determined 48 h and 72 h following stimulation. A 13-plex-system based FACS analysis was used for showing the reduced secretion of pro-inflammatory cytokines in the supernatant. Data for IL-1, IL-2, IL-6, IL-12p70 IL-17, IFN-γ and TNF-α are considered to be most relevant. Thus, analysis of the anti-inflammatory properties of the tripeptides is preferably based on the results obtained for these analytes. […] Using this method the gene expression of pro-inflammatory markers like IL-6, IL-17, IFN-γ and TNF-α was determined.
(§2) In a third experiment murine and human T cells and HaCaT cells were stimulated with PMA/Ionomycin and treated with Examples 14, 15, 16 and 17 at 10^−7 M, 10^−9 M and 10^−11 M. Cytokine concentrations (IFN-γ, IL-17 and IL-10 for T cells and IFN-γ for HaCat) were assessed in the supernatants using the Luminex technology. Expression of genes coding for Il-1β, IL-6 and TNF-α was determined. […] Moreover, concentrations of pro-inflammatory cytokines IFN-γ and IL-17 was reduced in the supernatants whereas the concentration of anti-inflammatory cytokine IL-10 was increased. […]
(§3) For the biological assay two human cell lines of different origin were chosen to allow for translation of the results obtained. A HaCaT cell is a cell type belonging to an immortal human keratinocyte line used in scientific research. Its use in research allows for the characterization of human keratinocyte using a model that is reproducible and representing a human epithelial cell line. In contrast human T-lymphocytes (T-cells) are a type of lymphocyte (itself a type of white blood cell) that play a central role in cell-mediated inflammation/immunity.

[2] = system: human keratinocyte cell line (HaCaT); test: Cytokine secretion on protein level in activated human keratinocyte cell line HaCaT (13-plex FACS / Luminex, supernatant); format: cell-based; conditions: for IL-1 cytokine concentration / IL-2 cytokine concentration / IL-4 cytokine concentration / IL-5 cytokine concentration / IL-6 cytokine concentration / IL-9 cytokine concentration / IL-10 cytokine concentration / IL-13 cytokine concentration / IL-17 cytokine concentration / TNF-α cytokine concentration / IL-12p70 cytokine concentration / IL-22 cytokine concentration / IFN-γ cytokine concentration: 10^−9M; for IL-12p70 cytokine concentration / IL-22 cytokine concentration: excluded from the final assessment
Protocol: as §1, §2, §3

[3] = system: primary murine T-cells; test: Cytokine secretion on protein level in activated primary murine T-cells (13-plex FACS / Luminex, supernatant); format: cell-based, C57BL/6 mice; conditions: 10^−9M
Protocol: as §1
In a third experiment murine and human T cells and HaCaT cells were stimulated with PMA/Ionomycin and treated with Examples 14, 15, 16 and 17 at 10^−7 M, 10^−9 M and 10^−11 M. Cytokine concentrations (IFN-γ, IL-17 and IL-10 for T cells and IFN-γ for HaCat) were assessed in the supernatants using the Luminex technology. Expression of genes coding for Il-1β, IL-6 and TNF-α was determined. […] Moreover, concentrations of pro-inflammatory cytokines IFN-γ and IL-17 was reduced in the supernatants whereas the concentration of anti-inflammatory cytokine IL-10 was increased.
The anti-inflammatory and immunomodulatory effects of selected examples of the present invention were compared with common immunosuppressants. Thus, cells activated with PMA/Ionomycin and IFN-γ, respectively, were stimulated with MMF or dexamethasone. Following stimulation the secretion of pro-inflammatory cytokines was analyzed on protein and gene level (Table 9 and FIGS. 4-6).

[4] = primary human T-cells stimulated with IFN-γ
[5] = primary human T-cells stimulated with PBS
[6] = primary human T-cells stimulated with PMA/Ionomycin
[7] = HaCaT stimulated with PMA/Ionomycin
[8] = primary murine T-cells stimulated with IFN-γ
[9] = primary murine T-cells stimulated with PBS
[10] = primary murine T-cells stimulated with PMA/Ionomycin
[11] = primary murine T-cells stimulated with PMA/Ionomycin, 1:10 dilution of the supernatants

H-Lys-[dP]-[Aib]-OH [Example 1]
IL-1 cytokine concentration [1, 4]: 296.42 pg/mL
IL-2 cytokine concentration [1, 4]: 515.89 pg/mL
IL-4 cytokine concentration [1, 4]: 180.24 pg/mL
IL-5 cytokine concentration [1, 4]: 112.65 pg/mL
IL-6 cytokine concentration [1, 4]: 131.33 pg/mL
IL-9 cytokine concentration [1, 4]: 111.14 pg/mL
IL-10 cytokine concentration [1, 4]: 164.32 pg/mL
IL-12p70 cytokine concentration [1, 4]: 945.16 pg/mL
IL-13 cytokine concentration [1, 4]: 82.57 pg/mL
IL-17 cytokine concentration [1, 4]: 234.65 pg/mL
IL-22 cytokine concentration [1, 4]: 21389.5 pg/mL
TNF-α cytokine concentration [1, 4]: 230.57 pg/mL
IFN-γ cytokine concentration [1, 5]: 634.2 pg/mL
IL-1 cytokine concentration [1, 5]: 398.01 pg/mL
IL-2 cytokine concentration [1, 5]: 545.22 pg/mL
IL-4 cytokine concentration [1, 5]: 198.06 pg/mL
IL-5 cytokine concentration [1, 5]: 275.55 pg/mL
IL-6 cytokine concentration [1, 5]: 85.95 pg/mL
IL-9 cytokine concentration [1, 5]: 131.69 pg/mL
IL-10 cytokine concentration [1, 5]: 107.07 pg/mL
IL-12p70 cytokine concentration [1, 5]: 223.67 pg/mL
IL-13 cytokine concentration [1, 5]: 77.6 pg/mL
IL-17 cytokine concentration [1, 5]: 295.13 pg/mL
IL-22 cytokine concentration [1, 5]: 2227.62 pg/mL
TNF-α cytokine concentration [1, 5]: 203.95 pg/mL
IFN-γ cytokine concentration [1, 6]: 2516.08 pg/mL
IL-1 cytokine concentration [1, 6]: 11244.1 pg/mL
IL-2 cytokine concentration [1, 6]: 12000 pg/mL
IL-4 cytokine concentration [1, 6]: 209.61 pg/mL
IL-5 cytokine concentration [1, 6]: 204.84 pg/mL
IL-6 cytokine concentration [1, 6]: 1868.8 pg/mL
IL-9 cytokine concentration [1, 6]: 159.86 pg/mL
IL-10 cytokine concentration [1, 6]: 3032.66 pg/mL
IL-12p70 cytokine concentration [1, 6]: 925.71 pg/mL
IL-13 cytokine concentration [1, 6]: 398.98 pg/mL
IL-17 cytokine concentration [1, 6]: 2443.34 pg/mL
IL-22 cytokine concentration [1, 6]: 24324.9 pg/mL
TNF-α cytokine concentration [1, 6]: 3600 pg/mL
IL-1 cytokine concentration ([2]; HaCaT stimulated with IFN-γ): 251.36 pg/mL
IL-2 cytokine concentration ([2]; HaCaT stimulated with IFN-γ): 95.81 pg/mL
IL-4 cytokine concentration ([2]; HaCaT stimulated with IFN-γ): 88.93 pg/mL
IL-5 cytokine concentration ([2]; HaCaT stimulated with IFN-γ): 156.74 pg/mL
IL-6 cytokine concentration ([2]; HaCaT stimulated with IFN-γ): 704.01 pg/mL
IL-9 cytokine concentration ([2]; HaCaT stimulated with IFN-γ): 96.1 pg/mL
IL-10 cytokine concentration ([2]; HaCaT stimulated with IFN-γ): 107.72 pg/mL
IL-13 cytokine concentration ([2]; HaCaT stimulated with IFN-γ): 57.99 pg/mL
IL-17 cytokine concentration ([2]; HaCaT stimulated with IFN-γ): 612.41 pg/mL
TNF-α cytokine concentration ([2]; HaCaT stimulated with IFN-γ): 101.29 pg/mL
IL-12p70 cytokine concentration ([2]; HaCaT stimulated with IFN-γ): 1872.11 pg/mL
IL-22 cytokine concentration ([2]; HaCaT stimulated with IFN-γ): 18014.5 pg/mL
IFN-γ cytokine concentration ([2]; HaCaT stimulated with PBS): 373.53 pg/mL
IL-1 cytokine concentration ([2]; HaCaT stimulated with PBS): 224.9 pg/mL
IL-2 cytokine concentration ([2]; HaCaT stimulated with PBS): 87.98 pg/mL
IL-4 cytokine concentration ([2]; HaCaT stimulated with PBS): 85.92 pg/mL
IL-5 cytokine concentration ([2]; HaCaT stimulated with PBS): 181.61 pg/mL
IL-6 cytokine concentration ([2]; HaCaT stimulated with PBS): 77.53 pg/mL
IL-9 cytokine concentration ([2]; HaCaT stimulated with PBS): 112.82 pg/mL
IL-10 cytokine concentration ([2]; HaCaT stimulated with PBS): 166.47 pg/mL
IL-13 cytokine concentration ([2]; HaCaT stimulated with PBS): 64.17 pg/mL
IL-17 cytokine concentration ([2]; HaCaT stimulated with PBS): 562.61 pg/mL
TNF-α cytokine concentration ([2]; HaCaT stimulated with PBS): 87.84 pg/mL
IL-12p70 cytokine concentration ([2]; HaCaT stimulated with PBS): 1881.61 pg/mL
IL-22 cytokine concentration ([2]; HaCaT stimulated with PBS): 18087.5 pg/mL
IFN-γ cytokine concentration [2, 7]: 531 pg/mL
IL-1 cytokine concentration [2, 7]: 118.79 pg/mL
IL-2 cytokine concentration [2, 7]: 184.58 pg/mL
IL-4 cytokine concentration [2, 7]: 78.12 pg/mL
IL-5 cytokine concentration [2, 7]: 141.02 pg/mL
IL-6 cytokine concentration [2, 7]: 131.98 pg/mL
IL-9 cytokine concentration [2, 7]: 108.97 pg/mL
IL-10 cytokine concentration [2, 7]: 48.13 pg/mL
IL-13 cytokine concentration [2, 7]: 49.03 pg/mL
IL-17 cytokine concentration [2, 7]: 449.68 pg/mL
TNF-α cytokine concentration [2, 7]: 77.12 pg/mL
IL-12p70 cytokine concentration [2, 7]: 0 pg/mL
IL-22 cytokine concentration [2, 7]: 8956.12 pg/mL
secretion / expression of pro-inflammatory cytokines (supernatant) ([2]; activated human keratinocytes): decreased secretion
IL-1 cytokine concentration [3, 8]: 0 pg/mL
IL-2 cytokine concentration [3, 8]: 0 pg/mL
IL-4 cytokine concentration [3, 8]: 0 pg/mL
IL-5 cytokine concentration [3, 8]: 0 pg/mL
IL-6 cytokine concentration [3, 8]: 6.51 pg/mL
IL-10 cytokine concentration [3, 8]: 0 pg/mL
IL-13 cytokine concentration [3, 8]: 0 pg/mL
IL-17 cytokine concentration [3, 8]: 10.81 pg/mL
IL-21 cytokine concentration [3, 8]: 0 pg/mL
IL-22 cytokine concentration [3, 8]: 0 pg/mL
IL-27 cytokine concentration [3, 8]: 179.72 pg/mL
TNF-α cytokine concentration [3, 8]: 0 pg/mL
IFN-γ cytokine concentration [3, 9]: 0 pg/mL
IL-1 cytokine concentration [3, 9]: 53.09 pg/mL
IL-2 cytokine concentration [3, 9]: 0 pg/mL
IL-4 cytokine concentration [3, 9]: 0 pg/mL
IL-5 cytokine concentration [3, 9]: 0 pg/mL
IL-6 cytokine concentration [3, 9]: 0 pg/mL
IL-10 cytokine concentration [3, 9]: 110.76 pg/mL
IL-13 cytokine concentration [3, 9]: 0 pg/mL
IL-17 cytokine concentration [3, 9]: 0 pg/mL
IL-21 cytokine concentration [3, 9]: 0 pg/mL
IL-22 cytokine concentration [3, 9]: 0 pg/mL
IL-27 cytokine concentration [3, 9]: 379.78 pg/mL
TNF-α cytokine concentration [3, 9]: 0 pg/mL
IL-1 cytokine concentration [3, 10]: 60.61 pg/mL
IL-4 cytokine concentration [3, 10]: 0 pg/mL
IL-5 cytokine concentration [3, 10]: 292.17 pg/mL
IL-6 cytokine concentration [3, 10]: 239.47 pg/mL
IL-10 cytokine concentration [3, 10]: 145.26 pg/mL
IL-13 cytokine concentration [3, 10]: 3898.42 pg/mL
IL-17 cytokine concentration [3, 10]: 459.99 pg/mL
IL-21 cytokine concentration [3, 10]: 0 pg/mL
IL-22 cytokine concentration [3, 10]: 526.42 pg/mL
IL-27 cytokine concentration [3, 10]: 426.79 pg/mL
TNF-α cytokine concentration [3, 10]: 535.51 pg/mL
IFN-γ* cytokine concentration [3, 11]: 0 pg/mL
IL-2* cytokine concentration [3, 11]: 1354.76 pg/mL
